pIC50: −log10 of the molar value. “Also recorded” adds a separate entry of the source. Read-outs that look alike come from different tables or passages of the source.
Assays:
Assay in all cases: Cell Titer Glo cell viability assay, 48 h
Format in all cases: cell-based, human
U937 = conditions: 48 h, mean of 2 independent experiments, 0 = less than 10 nM, cell line not given, read-out: IC50 of inhibitors on cell lines, m (mean)
Experimental: (§1) The activity of the kinase inhibitor collection against a panel of human leukemia cell lines was determined in cell viability assays run over 48 h using the Cell Titer Glo reagent.
(§2) Figure 1 Effects of kinase inhibition on the proliferation of leukemia cells A. Human leukemia cell lines were treated with duplicate serial dilutions of kinase inhibitors and the effect on cell viability was determined by Cell Titer Glo assay after 48 hours. […] HL-60 cells were treated with serial dilutions of mTor/PI3K B. and MEK C. inhibitors and the effect on cell viability was determined after 48 hours. Data shown is the mean ± SEM of 3 independent experiments.
(§3) Leukemia and lymphoma cell lines were grown in RPMI containing 10% FCS. […] Cell lines are routinely tested for mycoplasma and genotyped by short tandem repeating (STR) profiling to confirm identity.
(§4) Compounds were obtained from SynMedChem and dissolved at […] in DMSO. Serial 2-fold dilutions of each compound were prepared in DMSO using a liquid handling robot (Janus, Perkin Elmer). Each dilution (100nL) was transferred to duplicate tissue culture plates containing 50 μL of media containing 5 × 10^3 cells using a 384 well pin tool. Cells were incubated for 48 h and cell viability was determined using Cell Titer Glow reagents as described by the manufacturer (Promega). Data was acquired using a luminescent plate reader (Envision, Perkin Elmer) and analysed using Activity Base (IDBS, Guilford, UK) and visualised using Spotfire (TIBCO, Palo Alto, CA) as described previously. Each cell line was assayed in independent experiments on at least two occasions. […] Serial 2-fold dilutions of each compound were prepared in media containing 0.2% DMSO and 50 μl of each dilution was added to 10^4 cells in 50 μl of media. Cells were incubated for 48 h and cell viability was determined using Cell Titer Glow assay as described above.

JURKAT = conditions: 48 h, mean of 2 independent experiments, 0 = less than 10 nM, cell line not given, read-out: IC50 of inhibitors on cell lines, m (mean)
Experimental: as §1, §2, §3, §4

MV4;11 = conditions: 48 h, mean of 2 independent experiments, 0 = less than 10 nM, cell line not given, read-out: IC50 of inhibitors on cell lines, m (mean)
Experimental: as §1, §2, §3, §4

OCI-AML3 = conditions: 48 h, mean of 2 independent experiments, 0 = less than 10 nM, cell line not given, read-out: IC50 of inhibitors on cell lines, m (mean)
Experimental: as §1, §2, §3, §4

THP-1 = conditions: 48 h, mean of 2 independent experiments, 0 = less than 10 nM, cell line not given, read-out: IC50 of inhibitors on cell lines, m (mean)
Experimental: as §1, §2, §3, §4

MEG-01 = conditions: 48 h, mean of 2 independent experiments, 0 = less than 10 nM, cell line not given, read-out: IC50 of inhibitors on cell lines, m (mean)
Experimental: as §1, §2, §3, §4

HL-60 = conditions: 48 h; for pIC50: mean of 2 independent experiments, 0 = less than 10 nM, cell line not given, read-out: IC50 of inhibitors on cell lines, m (mean); for anti-proliferative activity in HL-60 cells: dose-response, Cell Titer Glo
Experimental: as §1, §2, §3, §4

K562 = conditions: 48 h, mean of 2 independent experiments, 0 = less than 10 nM, cell line not given, read-out: IC50 of inhibitors on cell lines, m (mean)
Experimental: as §1, §2, §3, §4

HEL.92.1.7 = conditions: 48 h, mean of 2 independent experiments, 0 = less than 10 nM, cell line not given, read-out: IC50 of inhibitors on cell lines, m (mean)
Experimental: as §1, §2, §3, §4

MOLT4 = conditions: 48 h, mean of 2 independent experiments, 0 = less than 10 nM, cell line not given, read-out: IC50 of inhibitors on cell lines, m (mean)
Experimental: as §1, §2, §3, §4

KU-812 = conditions: 48 h, mean of 2 independent experiments, 0 = less than 10 nM, cell line not given, read-out: IC50 of inhibitors on cell lines, m (mean)
Experimental: as §1, §2, §3, §4

EOL-1 = conditions: 48 h, mean of 2 independent experiments, 0 = less than 10 nM, cell line not given, read-out: IC50 of inhibitors on cell lines, m (mean)
Experimental: as §1, §2, §3, §4

Row | SMILES | pIC50 (U937; Homo sapiens, U-937) | pIC50 (JURKAT; Homo sapiens) | pIC50 (MV4;11; Homo sapiens) | pIC50 (OCI-AML3; Homo sapiens, OCI-AML-3) | pIC50 (THP-1; Homo sapiens) | pIC50 (HL-60; Homo sapiens) | pIC50 (K562; Homo sapiens) | pIC50 (MOLT4; Homo sapiens, MOLT-4) | pIC50 (MEG-01; Homo sapiens) | pIC50 (HEL.92.1.7; Homo sapiens) | pIC50 (KU-812; Homo sapiens, KU812) | pIC50 (EOL-1; Homo sapiens, EOL1) | also measured
1 | Cc1[nH]c(/C=C2\C(=O)Nc3ccccc32)c(C)c1CCC(=O)O [SU-6668] | < 5.00 | < 5.00 | 5.29 | < 5.00 | < 5.00 | < 5.00 | 5.09 | < 5.00 | < 5.00 | < 5.00 | < 5.00 | 6.08 | 
2 | CC(=O)Nc1cccc(-n2c(=O)n(C3CC3)c(=O)c3c(Nc4ccc(I)cc4F)n(C)c(=O)c(C)c32)c1 [GSK-1120212] |  |  |  |  |  |  |  |  |  |  |  |  | anti-proliferative activity in HL-60 cells (HL-60): selective activity
3 | O=C(NOCC1CC1)c1ccc(F)c(F)c1Nc1ccc(I)cc1Cl [CI-1040] |  |  |  |  |  |  |  |  |  |  |  |  | anti-proliferative activity in HL-60 cells (HL-60): potent activity selectively against the HL-60 cell line; also recorded: selective activity
4 | Cc1c[nH]c(/C=C2\C(=O)Nc3ccccc32)c1CCC(=O)O [SU-5402] |  |  |  |  |  |  |  |  |  |  |  |  | pIC50 (U937): < 5.00; pIC50 (EOL-1): 5.84; pIC50 (JURKAT): < 5.00; pIC50 (MV4;11): 6.14; pIC50 (OCI-AML3): < 5.00; pIC50 (THP-1): < 5.00; pIC50 (MEG-01): < 5.00; pIC50 (HL-60): < 5.00; pIC50 (K562): < 5.00; pIC50 (HEL.92.1.7): < 5.00; pIC50 (MOLT4): < 5.00; pIC50 (KU-812): 5.03
5 | O=C(NOC[C@H](O)CO)c1ccc(F)c(F)c1Nc1ccc(I)cc1F [PD0325901] |  |  |  |  |  |  |  |  |  |  |  |  | anti-proliferative activity in HL-60 cells (HL-60): potent activity selectively against the HL-60 cell line; also recorded: selective activity
6 | CN(C)C1CCN(C(=O)c2ccc(NC(=O)Nc3ccc(-c4nc(N5CCOCC5)nc(N5CCOCC5)n4)cc3)cc2)CC1 [PKI-587] |  |  |  |  |  |  |  |  |  |  |  |  | anti-proliferative activity in HL-60 cells (HL-60): significant anti-proliferative activity
7 | Cn1c(=O)c(Oc2ccc(F)cc2F)cc2cnc(NC3CCOCC3)nc21 [R1487] |  |  |  |  |  |  |  |  |  |  |  |  | pIC50 (U937): < 5.00; pIC50 (EOL-1): 5.85; pIC50 (JURKAT): < 5.00; pIC50 (MV4;11): < 5.00; pIC50 (OCI-AML3): < 5.00; pIC50 (THP-1): < 5.00; pIC50 (MEG-01): < 5.00; pIC50 (HL-60): < 5.00; pIC50 (K562): < 5.00; pIC50 (HEL.92.1.7): < 5.00; pIC50 (MOLT4): < 5.00; pIC50 (KU-812): < 5.00
8 | CS(=O)(=O)N1CCN(Cc2cc3nc(-c4cccc5[nH]ncc45)nc(N4CCOCC4)c3s2)CC1 [GDC-0941] |  |  |  |  |  |  |  |  |  |  |  |  | anti-proliferative activity in HL-60 cells (HL-60): significant anti-proliferative activity
9 | OCCC#Cc1nc(-c2ccc(F)cc2)c(-c2ccncc2)n1CCCc1ccccc1 [RWJ-67657] | 5.09 | < 5.00 | 5.08 | < 5.00 | < 5.00 | < 5.00 | < 5.00 | < 5.00 | < 5.00 | < 5.00 | 5.24 | 5.44 | 
10 | CN(c1ccccc1CNc1nc(Nc2ccc3c(c2)CC(=O)N3)ncc1C(F)(F)F)S(C)(=O)=O [PF431396] |  |  |  |  |  |  |  |  |  |  |  |  | pIC50 (U937): 5.91; pIC50 (EOL-1): 5.82; pIC50 (JURKAT): 5.44; pIC50 (MV4;11): 6.80; pIC50 (OCI-AML3): 5.53; pIC50 (THP-1): 5.44; pIC50 (MEG-01): 5.20; pIC50 (HL-60): 5.79; pIC50 (K562): 5.15; pIC50 (HEL.92.1.7): 5.39; pIC50 (MOLT4): 5.19; pIC50 (KU-812): 5.28
11 | CCN(CC)CCNC(=O)c1c(C)[nH]c(/C=C2\C(=O)Nc3ccc(F)cc32)c1C [Sunitinib] | 5.94 | 5.79 | 8.00 | 5.99 | 5.74 | 5.84 | 5.32 | 5.60 | 5.62 | 5.58 | 5.81 | 8.00 | 
12 | COc1ccc(-c2cc3c(C)nc(N)nc3n([C@H]3CC[C@H](OCCO)CC3)c2=O)cn1 [PF-04691502] |  |  |  |  |  |  |  |  |  |  |  |  | anti-proliferative activity in HL-60 cells (HL-60): significant anti-proliferative activity

More lines, main results first:

Row | pIC50 (U937; Homo sapiens, U-937) | pIC50 (JURKAT; Homo sapiens) | pIC50 (MV4;11; Homo sapiens) | pIC50 (OCI-AML3; Homo sapiens, OCI-AML-3) | pIC50 (THP-1; Homo sapiens) | pIC50 (HL-60; Homo sapiens) | pIC50 (K562; Homo sapiens) | pIC50 (MOLT4; Homo sapiens, MOLT-4) | SMILES | pIC50 (MEG-01; Homo sapiens) | pIC50 (HEL.92.1.7; Homo sapiens) | pIC50 (KU-812; Homo sapiens, KU812) | pIC50 (EOL-1; Homo sapiens, EOL1) | also measured
13 | 5.20 | 5.57 | 7.40 | 5.46 | 5.23 | 5.45 | 6.23 | 5.43 | COC(=O)c1ccc2c(c1)NC(=O)/C2=C(\Nc1ccc(N(C)C(=O)CN2CCN(C)CC2)cc1)c1ccccc1 [Vargatef] | 6.34 | 5.53 | 6.62 |  | 
14 | < 5.00 | < 5.00 | 5.04 | < 5.00 | < 5.00 | < 5.00 | < 5.00 | < 5.00 | CC(C)[C@H](CO)Nc1nc(Nc2ccc(C(=O)O)c(Cl)c2)c2ncn(C(C)C)c2n1 [Purvalanol B] | < 5.00 | < 5.00 | < 5.00 | < 5.00 | 
15 | 5.39 | 5.02 | 5.11 | < 5.00 | < 5.00 | < 5.00 | 5.13 | < 5.00 | CCc1nc(-c2cccc(C)c2)c(-c2ccnc(NC(=O)c3ccccc3)c2)s1 [TAK-715] | 5.13 | < 5.00 | 5.21 | 5.63 | 
16 | < 5.00 | < 5.00 | 5.21 | < 5.00 | < 5.00 | < 5.00 | < 5.00 | < 5.00 | COc1nccc(-c2c(-c3ccc(F)cc3)ncn2C2CCNCC2)n1 [SB242235] | 5.66 | < 5.00 | < 5.00 | 6.29 | 
17 | 5.02 | 5.20 | 6.07 | < 5.00 | < 5.00 | 5.14 | 5.56 | 5.17 | COc1cc2c(Nc3ccc(Br)cc3F)ncnc2cc1OCC1CCN(C)CC1 [Vandetanib] | 5.82 | < 5.00 | 6.09 | 6.72 | 
18 | 5.13 | 5.36 | 7.10 | 5.31 | 5.13 | 5.12 | 5.05 | 5.01 | COc1cc2c(N3CCN(C(=O)Nc4ccc(OC(C)C)cc4)CC3)ncnc2cc1OCCCN1CCCCC1 [Tandutinib] | 5.10 | < 5.00 | 5.18 | 7.70 | 
19 | 5.07 | 5.01 | 5.25 | < 5.00 | < 5.00 | < 5.00 | < 5.00 | < 5.00 | CCCS(=O)(=O)Nc1ccc(F)c(C(=O)c2c[nH]c3ncc(Cl)cc23)c1F [PLX4720] | 6.08 | < 5.00 | 6.35 | 5.38 | 
20 | 5.69 | 5.68 | 6.36 | 5.47 | 5.37 | 5.74 | 5.24 | 5.63 | CN(C)C/C=C/C(=O)Nc1cc2c(Nc3ccc(F)c(Cl)c3)ncnc2cc1O[C@H]1CCOC1 [TOVOK] | 5.30 | 5.71 | 5.57 | 6.17 | 
21 | 5.27 | < 5.00 | 8.00 | 5.26 | < 5.00 | 5.24 | 5.00 | < 5.00 | CNC(=O)c1cc(Oc2ccc(NC(=O)Nc3ccc(Cl)c(C(F)(F)F)c3)cc2)ccn1 [Sorafenib] | 5.20 | < 5.00 | 5.42 |  | 
22 | < 5.00 | < 5.00 | < 5.00 | < 5.00 | < 5.00 | < 5.00 | < 5.00 | < 5.00 | NC(=O)c1ccc(N(C(N)=O)c2c(F)cccc2F)nc1-c1ccc(F)cc1F [VX702] | < 5.00 | < 5.00 | < 5.00 | 5.26 | 

From paper PMC5601625, “Defining a therapeutic window for kinase inhibitors in leukemia to avoid neutropenia” (Oncotarget, 2017)
